Measured values reported in patent US20260306490A1, “PIM1 INHIBITOR FOR TREATING MYELOPROLIFERATIVE NEOPLASMS” (Sumitomo Pharma America, Inc., priority 2022, published 2026).

How the values were obtained:
PIM1 = conditions: read-out: Preclinical IC50, PIM1; cited from earlier work
MF patients = assay: Phase 1/2 clinical study in MF patients treated with HCl salt of Compound (1) (TP-3654-102); format: in vivo, human; design: reduction in IL6 / reduction in IL12p40 / reduction in MMP9 / reduction in EN-RAGE / median TSS reduction from baseline: concentration or dose not given beside the values
Method: Patients with MF (primary MF, post-PV MF, post-ET MF) and DIPSS intermediate-1, intermediate-2, or high risk were enrolled in a Phase 1/2 clinical study.
Dose escalation to 960 mg BID and 1440 mg BID is intended.
Patients had to meet all of the following inclusion criteria to enroll in the study: • 1. Adult (≥18 years of age) • 2. Confirmed pathological diagnosis of primary MF (PMF) or post-PV-MF/postET-MF as per WHO diagnostic criteria and intermediate or high-risk primary or secondary MF based on the Dynamic International Prognostic Scoring System (DIPSS). • 3. Previously treated with a JAK inhibitor and are intolerant, resistant, refractory or lost response to the JAK inhibitor, or are ineligible to be treated with ruxolitinib or fedratinib at the discretion of the investigator. • 4. Grade≥2 bone marrow fibrosis, as confirmed by bone marrow biopsy within 12 weeks prior to Screening. • 5. Fulfill the following laboratory parameters: • a. Platelet count≥25×10^9/L (without the assistance of growth factors or platelet transfusions) • b. Absolute neutrophil count (ANC)≥1×10^9/L without the assistance of granulocyte growth factors. • 6. Peripheral blood blast count<10%. • 7. Eastern Cooperative Oncology Group (ECOG) performance status≤2. • 8. Life expectancy≥3 months. • 9. […] Adequate hepatic function (ALT/AST≤3×ULN, total bilirubin≤1.5×ULN; or ALT/AST≤5×ULN, direct bilirubin≤2×ULN if due to MF); and coagulation ([PT and PTT]≤1.5×ULN). • 11. Agree to provide bone marrow biopsies during the study: at baseline or within 12 weeks prior to enrollment, and every 6 months during treatment. • 12. Capable of providing signed informed consent as described in which includes compliance with the requirements and restrictions listed in the informed consent form (ICF) and in this protocol • 13. […] Show at least 2 symptoms measurable (score≥1) using the Myelofibrosis Symptom Assessment Form (MFSAF), v4.0. • 16. Able to take orally administered medication
Patients meeting any one of the exclusion criteria were prohibited from participating in the study: • 1. Received previous systemic antineoplastic therapy (including unconjugated therapeutic antibodies, toxin immunoconjugates, ESA, and alpha-interferon) or any experimental therapy within 14 days or 5 half-lives, whichever is longer, before the first dose of study treatment. • 2. Major surgery within 2 weeks before the first dose of either study drug. • 3. Splenic irradiation within 6 months prior to Screening or prior splenectomy. • 4. AML, MDS, or peripheral blasts≥10%. • 5. Prior autologous or allogeneic stem cell transplant at any time. • 6. Eligible for allogeneic bone marrow or stem cell transplantation within 3 months following enrollment (not a candidate or not willing to undergo transplantation or a suitable donor not available are considered as transplant ineligible). • 7. Currently receiving treatment with a prohibited medication that cannot be discontinued at least one week prior to the start of treatment. • 8. Experiencing electrolyte abnormalities of NCI CTCAE Grade≥2 (e.g., serum potassium, magnesium and calcium) unless they can be corrected during screening and are deemed not clinically significant by the Investigator. • 9. History of congestive heart failure, myocardial infarction within the past 6 months prior to Cycle 1/Day 1; left ventricular ejection fraction<45% by echocardiogram or MUGA, unstable arrhythmia, or evidence of ischemia on electrocardiogram (ECG) within 14 days prior to Cycle 1/Day 1. • 10. Corrected QT interval (using Fridericia's correction formula) of >450 msec in men and >470 msec in women. • 11. Central nervous system (CNS) cancer or metastases, meningeal carcinomatosis, malignant seizures, or a disease that either causes or threatens neurologic compromise (e.g., unstable vertebral metastases). • 12. Other invasive malignancies within the last 3 years, except non-melanoma skin cancer, and localized cured prostate and cervical cancer • 13. […]

[1] = R/R MF, ≥25 × 10^9/L PLT, monotherapy
[2] = TP-3654-102, R/R MF, monotherapy, N = 23
[3] = first interim analysis, FIG. 5G
[4] = first interim analysis, monotherapy, 480 mg QD to 720 mg BID
[5] = first interim analysis, over treatment duration
[6] = first interim analysis, treatment duration ≥12 weeks
[7] = one patient with bone marrow fibrosis reduction
[8] = second interim analysis, MFSAF v4.0
[9] = second interim analysis, n = 13

CC(C)(O)[C@H]1CC[C@H](Nc2ccc3ncc(-c4cccc(C(F)(F)F)c4)n3n2)CC1 [Compound (1)]
IC50 (PIM1): 5 nM | Hem AE (>10%), thrombocytopenia (MF patients; R/R MF, Ph 1): No ≥G3 | SVR35 at Week 24 (MF patients; [1]): 23% | TSS50 at Week 24 (MF patients; [1]): 54% | TEAE Anemia, All Gr (MF patients; [2]): 13% | TEAE Anemia, ≥3 Gr (MF patients; [2]): 4.3% | TEAE Neutropenia, All Gr (MF patients; [2]): 0% | TEAE Neutropenia, ≥3 Gr (MF patients; [2]): 0% | TEAE Thrombocytopenia, All Gr (MF patients; [2]): 22% | TEAE Thrombocytopenia, ≥3 Gr (MF patients; [2]): 13% | patients with myelosuppressive adverse events (anemia, neutropenia, thrombocytopenia) (MF patients; first interim analysis): 1 patient | time at which cytokine modulation was observed (as early as) (MF patients; first interim analysis): ≤ 24 h | patients with reduced spleen size and reduced symptoms (MF patients; [3]): 4 patients | patients with spleen volume increase and reduced symptoms (MF patients; [3]): 1 patient | patients with spleen volume reduction and increased symptoms (MF patients; [3]): 1 patient | reductions in cytokines vs total symptoms reduction (MF patients; first interim analysis, cytokine changes available for 7 patients): More reductions in cytokines were observed in patients who had more total symptoms reduction | hemoglobin (MF patients; [4]): increased in some patients | neutrophil counts (MF patients; [4]): stable | platelet counts (MF patients; [4]): stable or increased | spleen volume, median best change (MF patients; [5]): −13% | total symptom score, median best change (MF patients; [5]): −70% | patients with spleen volume reduction (MF patients; [6]): Eight out of 10 | patients with total symptom reduction (MF patients; [6]): Nine out of 10 | change for platelet count, hemoglobin, and neutrophil reduction (MF patients; for most patients, monotherapy): less than 1 grade | reduction in EN-RAGE (MF patients; [7]): 68% | reduction in IL12p40 (MF patients; [7]): 83% | reduction in MMP9 (MF patients; [7]): 56% | reduction in IL6 (MF patients; one patient with bone marrow fibrosis reduction, printed 1L6): 68% | bone marrow fibrosis reduction (MF patients; one patient, on active treatment >18 months): from grade 3 to 2 | overlapping hematological toxicities (thrombocytopenia and/or anemia) (MF patients; relative to toxicities reported for other MF treatments): minimal or no indication of overlapping hematological toxicities | patients achieving ≥35% SVR (number) (MF patients; second interim analysis): 3 of 13 | median spleen volume change (MF patients; second interim analysis, 13 evaluable patients): −11% | dose limiting toxicities (MF patients; second interim analysis, 23 patients, 5 dose levels): no dose limiting toxicities | median TSS reduction from baseline (MF patients; [8]): 70% | patients with TSS reduction (MF patients; [8]): 12 out of 13 | patients with ≥50% TSS reduction (number) (MF patients; [8]): Seven of 13 | patients achieving ≥35% SVR (percent) (MF patients; [9]): 23% | patients with ≥50% TSS reduction (percent) (MF patients; [9]): 54% | patients with ≥50% TSS reduction and durable response for ≥12 weeks (MF patients; second interim analysis, of seven patients with ≥50% TSS reduction): 5 patients | patients with spleen volume reduction (SVR) (MF patients; second interim analysis, ≥12 weeks of treatment, 13 evaluable): 10 patients | doses declared safe (MF patients; second interim analysis, printed mg BTD): up to 720 mg
